In publication PMC12873548, “D-amino acid substitution and cyclization enhance the stability and antimicrobial activity of arginine-rich peptides” (Microbiology, 2026):
In brackets after ≈: the same amount, converted by molar mass. Residues, ends and D or L forms follow the SMILES beside them.

Legend:
[1] = system: E. coli; experiment: Live/dead SYTO 9/PI fluorescence imaging; type: cell-based, Escherichia coli; conditions: mid-log phase E. coli, 2× MIC; red = damaged membranes
[2] = system: S. aureus ATCC 12600; experiment: Membrane integrity, PI uptake; type: cell-based, Staphylococcus aureus; conditions: S. aureus ATCC 12600, 5 µg ml−1 PI, 1 h
Procedure: Propidium iodide (PI) uptake was used to assess the permeabilization of the bacterial membrane upon incubation with peptides. E. coli and S. aureus cells, adjusted to an OD600 of 0.5, were placed into a 96-well plate containing 5 mM HEPES buffer (pH 7.4, supplemented with 5 mM glucose) and incubated with 5 µg ml^−1 PI for 15 min. Afterwards, different peptide concentrations were added, and PI uptake was rapidly measured every 10 min over a 1 h period using a Tecan Spark® microplate reader (λex=515 nm, λem=620 nm).

[3] = system: S. aureus (ATCC12600); type: cell-based, Staphylococcus aureus; conditions: S. aureus ATCC12600
Procedure: (§1) The MIC of arginine-based peptides was assessed using the microbroth dilution approach. Our in vitro screening included a panel of Gram-negative bacteria, Escherichia coli (ATCC 25922 and enterohaemorrhagic O157:H7) and Pseudomonas aeruginosa (PA01 and the drug-resistant strain NCTC 13437), and Gram-positive bacteria (Staphylococcus aureus ATCC 12600). Five-millilitre overnight cultures in Lysogeny broth, prepared from single isolated colonies, were diluted to 5×10^6 c.f.u. ml^−1 mid-log phase in Mueller–Hinton (MH) broth. Next, peptide concentrations (0 to 1 mM) were serially diluted twofold in 96-well plates and incubated overnight at 37 °C with the tested bacterial strains. In each case, the MIC was determined as the lowest peptide concentration at which no detectable bacterial growth was observed, employing an absorbance-based assay using a Tecan Spark® multimode plate reader. Subsequently, 10 µl aliquots from each peptide dilution were transferred to MH agar (1.5%) plates to determine the minimum bactericidal concentration (MBC) which was assessed by establishing at which concentration no visible growth of bacteria (assessed via colony formation) on the plate was observed.

[4] = system: S. aureus (12600); type: cell-based, Staphylococcus aureus
Procedure: as §1
The antimicrobial activity and structural stability of arginine-rich peptides were evaluated in the presence of human serum (20% and 50 %) and 5 µM Sequencing Grade Modified Trypsin (SGMT, Promega). Briefly, fresh human blood was collected in EDTA tubes and allowed to clot at room temperature for 1 h. Serum was then collected following centrifugation at 2,000 r.p.m. for 10 min at 4 °C. Peptides were incubated with 20%, 50% human serum and 5 µM SGMT in 50 mM Tris-HCl buffer (1 mM CaCl₂, pH 7.6) for 24 h at 37 °C. After the incubation period, the solutions were further incubated with E. coli (ATCC 25922 and O157:H7), P. aeruginosa (PA01, NCTC13437) and S. aureus (ATCC12600), and the MIC was assessed as described in the ‘Antibacterial assessment’ section. Additionally, the samples were analysed using electrospray ionization MS to monitor structural changes based on the molecular weight of the peptides.

[5] = system: Gram-positive and Gram-negative bacteria; type: cell-based; conditions: span of MIC and MBC against both Gram-positive and Gram-negative bacteria, Table 2
Procedure: as §1

[6] = system: P. aeruginosa (NCTC13437); type: cell-based, Pseudomonas aeruginosa; conditions: P. aeruginosa NCTC13437 (drug-resistant); 10 µl aliquots plated on MH agar, no visible colonies
Procedure: as §1

[7] = system: P. aeruginosa (PA01); type: cell-based, Pseudomonas aeruginosa; conditions: P. aeruginosa PA01
Procedure: as §1

[8] = system: P. aeruginosa (PAO1) biofilms; experiment: Disruption of pre-established biofilms, resazurin; type: cell-based, Pseudomonas aeruginosa; conditions: 48 h P. aeruginosa biofilm, peptide at 2× MIC, 18 h, 37 °C
Procedure: To establish mature P. aeruginosa (PAO1) biofilms, an overnight culture was diluted to an OD600 of 0.01 in 120 µl of M63 medium (supplemented with 1 mM MgSO₄ and 23 µM L-arginine) and incubated in flat-bottom 96-well plates at 37 °C for 48 h. Afterwards, individual wells containing biofilm were rinsed three times with PBS, and 150 µl MH broth was added with either 0.5× and 2× MIC peptides. 100 µg mL^−1 resazurin was added to measure the biofilm metabolic activity for 18 h at 37 °C using a Tecan Spark® microplate reader (λex=520 nm/λem=590 nm). c.f.u. counts were established by plating aliquots of a dilution series onto MH agar followed by overnight incubation at 37 °C. Residual biofilm biomass was subsequently quantified using 0.1% CV staining.
Three-dimensional images of biofilm communities, with and without peptide exposure, were captured using an All-in-One Fluorescence Microscope (Keyence, Japan). Pre-established biofilms in a 96-well plate were incubated with 2× MIC peptides for 3 h at 37 °C. Dual staining was performed with 5 µl of SYTO 9/PI for 30 min. Biofilm thickness was assessed through 2.0 µm optical cross-sections with 50 µm pinholes.

[9] = system: E. coli (O157:H7); type: cell-based, Escherichia coli
Procedure: as §1

[10] = system: P. aeruginosa (PA01); experiment: Inhibition of biofilm formation, crystal violet; type: cell-based, Pseudomonas aeruginosa; conditions: P. aeruginosa PA01, M63 medium, peptides 0 to 500 µM, 24 h, 0.1% CV
Procedure: Arginine-rich peptides were evaluated for their ability to inhibit biofilm formation of P. aeruginosa (PA01) cells. To assess this, the procedure described in the ‘Antibacterial assessment’ section for determining the MIC was adapted using M63 media (supplemented with 1 mM MgSO4 and 23 µM L-arginine). After 24 h of exposure to peptides (0 to 1 mM), flat-bottom 96-well plates were washed twice with PBS to remove any non-adherent cells. The remaining biofilm was stained with 0.1% crystal violet (CV) for 30 min at room temperature. Subsequently, the plates were washed three times to remove excess dye and left to dry overnight at room temperature. The following day, stained biofilms were solubilized using 30% glacial acetic acid, and absorbance was measured at 550 nm using a microplate reader. Biofilm inhibition was expressed as a percentage relative to control bacterial cells treated with PBS.

[11] = 10 µl aliquots plated on MH agar, no visible colonies
[12] = MH broth, 5×10^6 cells, 24 h, 37 °C, absorbance 600 nm, triplicate

## N=C(N)NCCC[C@@H]1NC(=O)[C@H](CCCNC(=N)N)NC(=O)[C@H](CCCNC(=N)N)NC(=O)[C@H](Cc2ccccc2)NC(=O)[C@H](Cc2ccccc2)NC(=O)[C@H](Cc2ccccc2)NC(=O)[C@H](Cc2ccccc2)NC(=O)[C@H](CCCNC(=N)N)NC1=O [CP-R4F4] (cyclo(RRRRFFFF))
[1]
  Membrane damage, live/dead SYTO 9/PI staining: high presence of red-stained cells indicative of damaged membranes
[2]
  PI uptake, membrane integrity: membrane-disruptive activity
[3]; [11]
  MBC: 125 µM (≈ 152 µg/mL)
[3]; [12]
  MIC: 62.5 µM (≈ 75.8 µg/mL)
[4]; control without serum or trypsin
  MIC, Control: 62.5 µM (≈ 75.8 µg/mL)
[4]; peptide incubated with 5 µM SGMT trypsin in 50 mM Tris-HCl, 1 mM CaCl2, pH 7.6, 24 h at 37 °C before MIC
  MIC, Trypsin: 62.5 µM (≈ 75.8 µg/mL)
[4]; peptide incubated with 20% human serum 24 h at 37 °C before MIC
  MIC, 20% human serum: 62.5 µM (≈ 75.8 µg/mL)
[4]; peptide incubated with 50% human serum 24 h at 37 °C before MIC
  MIC, 50% human serum: 250 µM (≈ 303 µg/mL)
[5]
  MIC and MBC values over all tested strains: 15.62 to 250 µM
[6]
  MBC: 250 µM (≈ 303 µg/mL)
[7]; [11]
  MBC: 31.2 µM (≈ 37.9 µg/mL)
[7]; [12]
  MIC: 31.2 µM (≈ 37.9 µg/mL)
[8]
  Disruption of mature biofilm (resazurin metabolic activity): significantly disrupted
[9]; [11]
  MBC: 62.5 µM (≈ 75.8 µg/mL)
[9]; [12]
  MIC: 31.25 µM (≈ 37.9 µg/mL)
[10]
  Biofilm formation (biomass, crystal violet): lowest levels of biofilm formation at the lower concentrations
